“Also recorded” adds a separate entry of the source.
Columns and labels:
[1] = tested on: UIIR; experiment: UIIR expression in cardiomyocytes treated with hypertrophic agonists (RT-PCR, western blot); type: cell-based, rat; conditions: for UIIR mRNA expression: 10 μM PE or 100 nM AngII for 24 hours, RT-PCR; for UIIR protein expression: PE or AngII, western blot
Experimental: Cardiomyocytes were cultured in medium containing 0.2% FBS and either PE (10 μM) or AngII (100 nM) for 48 hours. Total RNA was isolated and reverse transcribed. cDNA was used as template to amplify UIIR. […] Cardiomyocytes were cultured in medium containing 0.2% FBS and either PE (10 μM) or AngII (100 nM) for 48 hours. Total protein was isolated and UIIR detected by western blot.
Expression of UIIR in myocytes treated with hypertrophic agonists. In order to validate the array data, we designed PCR primers to amplify UIIR. Cardiomyocyte cultures were treated with 10 μM PE or 100 nM AngII for 24 hours and total RNA was extracted following the Trizol protocol (Invitrogen). Total RNA was then used for template for reverse transcription. The cDNA generated from the RT reaction was then used as template to amplify UIIR and GAPDH as control.
To this end, we stimulated cardiomyocyte cultures with AngII and PE as before and isolated total protein. The total protein was resolved by PAGE (12% acrylamide), transferred to nitrocellulose, and blotted for UIIR using a specific antibody.

[2] = tested on: ANF, SkA and MEF2 reporters; conditions: cardiomyocytes co-transfected with CaMKI; SB203580 10 μM or U0126 10 μM
Experimental: Cell Culture and Treatments. Cardiomyocytes were isolated from 2-4 day old Sprague-Dawley rats using the neonatal cardiomyocyte isolation system (Worthington Biolabs) based on a previously described protocol (45). Cells were plated in medium 199 supplemented with 10% fetal bovine serum (FBS, Atlanta Biologicals) and gentamycin (Fisher). Cells were maintained in medium 199 supplemented with 1.0% FBS and gentamycin. Prior to any treatment, cardiomyocyte cultures were incubated in medium 199 containing 0.2% serum for 24 hours. […] Cells were incubated in medium 199 containing 0.2% FBS prior to stimulation with the indicated reagents for reporter assays, RT-PCR, western blotting and immunoprecipitation.
Transient Transfection and Luciferase Assay. For transfections, cardiomyocytes were cultured in 12-well tissue culture plates as described. Once cultures were incubated in medium 199 with 0.2% serum for 24 hours, cultures were either infected with AdUIIR as described or were just transfected. […] Cardiomyocyte cultures were harvested 24-72 hours post treatment (per sample) and luciferase activity was determined by luminometry (Model TD 20/20 Luminometer, Turner Designs, Sunnyvale, Calif.) using a commercially available kit (Luciferase Substrate, Promega, Madison, Wis.).

[3] = tested on: HDAC5/14-3-3β association; experiment: Immunoprecipitation of 14-3-3β and detection of bound HDAC5 in cardiomyocytes; type: cell-based, rat; conditions: AdUIIR-infected cardiomyocytes; inhibitor 1 h prior to UII, 60 min
Experimental: (§1) Cell Culture and Treatments. […] Plasmids and Adenoviral Constructs.
For immunoprecipitation studies, Cardiomyocytes were cultured in 100-mm as described in the previous section. 24 h post-plating, cells were treated with UII and various pharmacological inhibitors as indictated. Following treatment, 14-3-3β was immunoprecipitated from whole cell lysate using a commercially available antibody (Abcam) and a protein G immunoprecipitation kit (IP50 Kit, Sigma, following manufacturer's protocol). HDAC5 was detected using a commercially-available antibody (Cell Signaling Technologies, Inc.).
UII stimulation induces association of HDAC5 with 14-3-3β in a CaMKK dependent manner. The activity of MEF2 is controlled, in part, by its association with class II HDACs in the nucleus. Class II HDACs repress the activity of MEF2-sensitive promoters by local deacetylation of nucleosomal histones causing the condensation of chromatin. The repressive influence of HDACs on MEF2 can be relieved by CaMK-dependent phosphorylation of HDACs, which results in their dissociation from MEF2. The dissociation of HDACs from MEF2 is accompanied by 14-3-3-mediated nuclear export of the HDACs. We have shown that UII stimulates the activity of MEF2. Next, to determine whether UII stimulates HDAC5 association with 14-3-3β, AdUIIR-infected cardiomyocytes were treated with UII for various times up to 60 min, and 14-3-3β was pulled down from the whole cell lysate by using an antibody specific for 14-3-3β and protein G agarose. HDAC5 was detected using a specific antibody.

[4] = tested on: ANF, SkA and MEF2 reporters; experiment: UII-stimulated ANF, SkA and MEF2 luciferase reporter assay in cardiomyocytes; type: cell-based, rat; conditions: AdUIIR-infected cardiomyocytes; inhibitor 1 h prior to UII 100 nM; STO-609 250 ng/mL, SB203580 10 μM, U0126 10 μM, AKTi 5 μM
From the text: as §1
Transient Transfection and Luciferase Assay.

[5] = tested on: ANF, BNP, αMHC and SkA mRNA; experiment: Semi-quantitative RT-PCR of hypertrophy marker genes in cardiomyocytes; type: cell-based, rat; conditions: AdUIIR-infected cardiomyocytes; UII 100 nM, STO-609 250 ng/mL, 48 h
Experimental: as §1
Reverse Transcription and Semi-quantitative PCR—Cardiomyocytes were cultured in 100-mm dishes at a density of 1×10^5 cells/cm^2. 24 h post-plating, cells were treated as indicated. Following treatment, total RNA was isolated with TRIzol® reagent (Invitrogen) cDNA was synthesized using Super-Script™III (Invitrogen) per the manufacturer's instructions. Semi-quantitative PCR was then performed using gene-specific primers for UIIR, hypertrophy marker genes and glyceraldehyde-3-phosphate dehydrogenase (GAPDH) (Integrated DNA Technologies). Sequences of gene-specific primers were as follows: for UIIR, sense 5′-[…]-3′ (SEQ ID NO: 1) and antisense 5′-[…]-3′ (SEQ ID NO: 2); for ANF, sense 5′-[…]-3′ (SEQ ID NO: 3) and antisense 5′-[…]-3′ (SEQ ID NO: 4); for BNP sense, 5′-[…]-3′ (SEQ ID NO: 5) and anti-sense 5′-[…]-3′ (SEQ ID NO: 6); for αMHC sense, 5′-[…]-3′ (SEQ ID NO: 7) and antisense 5′-[…]-3′ (SEQ ID NO: 8); for SkA sense, 5′-[…]-3′ (SEQ ID NO: 9) and antisense 5′-[…]-3′ (SEQ ID NO: 10); and for GAPDH sense, 5′-[…]-3′ (SEQ ID NO: 11) and antisense 5′-[…]-3′ (SEQ ID NO: 12).

[6] = biological target: p42 MAP kinase (Homo sapiens, UniProt P28482); conditions: cited from earlier work
[7] = biological target: CaMKKa (Rattus norvegicus, UniProt P97756); conditions: cited from earlier work
[8] = tested on: PKC; conditions: cited from earlier work
[9] = tested on: PKA; conditions: cited from earlier work
[10] = tested on: ERK1/2; experiment: Western blot of AngII or Et-1 stimulated ERK1/2 phosphorylation in cardiomyocytes; type: cell-based, rat; conditions: AngII 100 nM or Et-1 10 nM for 10 min; STO-609 250 ng/mL
Experimental: (§2) Whole cell lysates were subjected to Western blotting to determine the relative change in phosphorylation of ERK1/2 (FIG. 7A) or PKD (FIG. 7B). Western Blot Analysis and Immunoprecipitations. […] Following treatment, cells were lysed, and the relative abundance of UIIR, active p38 and ERK1/2, and active PKD was determined with commercially-available antibodies (Alpha Diagnostic, and Cell Signaling Technologies, Inc., respectively). The antibody for CaMKI was obtained from T. Soderling (Vollum Institute, Oregon Health Sciences University, Portland Oreg.).

[11] = tested on: PKD; experiment: Western blot of AngII or Et-1 stimulated PKD phosphorylation in cardiomyocytes; type: cell-based, rat; conditions: AngII 100 nM or Et-1 10 nM for 10 min; STO-609 250 ng/mL
Experimental: as §2

[12] = biological target: T1, CaM-KIV (Homo sapiens, UniProt Q16566); conditions: cited from earlier work
T1 sequence (Q16566 1-473): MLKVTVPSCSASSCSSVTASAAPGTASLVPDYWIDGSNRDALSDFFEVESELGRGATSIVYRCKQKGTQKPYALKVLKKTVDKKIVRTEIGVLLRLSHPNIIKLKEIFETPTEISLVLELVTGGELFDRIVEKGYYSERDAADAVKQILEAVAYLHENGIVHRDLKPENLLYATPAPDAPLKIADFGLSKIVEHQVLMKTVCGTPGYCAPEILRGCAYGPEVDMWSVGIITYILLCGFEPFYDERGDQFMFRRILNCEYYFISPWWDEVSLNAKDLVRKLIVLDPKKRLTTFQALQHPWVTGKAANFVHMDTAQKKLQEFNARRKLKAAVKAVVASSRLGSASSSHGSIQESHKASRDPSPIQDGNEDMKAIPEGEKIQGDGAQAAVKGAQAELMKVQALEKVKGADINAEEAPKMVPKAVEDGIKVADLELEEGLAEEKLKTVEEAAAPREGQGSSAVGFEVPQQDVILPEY

[13] = biological target: CaM-KI (Homo sapiens, UniProt Q14012); conditions: cited from earlier work
[14] = tested on: p38 and ERK1/2; experiment: Western blot of p38 and ERK1/2 phosphorylation in cardiomyocytes; type: cell-based, rat; conditions: AdUIIR-infected cardiomyocytes; UII with STO-609 for 5 min
Experimental: as §1
(§3) Western Blot Analysis and Immunoprecipitations. Cardiomyocytes were cultured in 100-mm dishes as described in the previous section. 24 h post-plating, cells were treated with UII and various pharmacological inhibitors as indicated. Following treatment, cells were lysed, and the relative abundance of UIIR, active p38 and ERK1/2, and active PKD was determined with commercially-available antibodies (Alpha Diagnostic, and Cell Signaling Technologies, Inc., respectively). The antibody for CaMKI was obtained from T. Soderling (Vollum Institute, Oregon Health Sciences University, Portland Oreg.).
UII-dependent activation of p38 and ERK1/2 requires CaMKK. MAP kinases play an important role in mediating intracellular signaling. They are involved in cellular processes such as hypertrophy (7-10, 53, 54). More interesting, cross talk has been reported between the CaMKs and the MAPKs in neurons (11). There are three distinct families of MAP kinases (ERKs, p38s, and JNKs)(55). […] Next, whether UII stimulation of the MAP kinases was dependent on CaMKK was determined. AdUIIR-infected cardiomyocyte cultures were treated with UII for various times up to 60 min, and the phosphorylation status of p38 and ERK MAPKs were measured by Western blot analysis using antibodies that detect the active (phosphorylated) forms of these kinases.

[15] = tested on: PKD; experiment: Western blot of PKD phosphorylation (phospho-Ser744/748) in cardiomyocytes; type: cell-based, rat; conditions: AdUIIR-infected cardiomyocytes; UII with STO-609 for 2 or 5 min
Experimental: as §1, §3
UII activates PKD in a CaMKK dependent manner. A parallel pathway involving PKD phosphorylatea HDACs resulting in their 14-3-3-dependent translocation […] (19). […] Next, it was determined whether UII stimulation could activate PKD which would account for the UII-induced HDAC5 translocation […] possibly working in conjunction with CaMKI. To determine whether UII activates PKD, AdUIIR-infected cardiomyocyte cultures were treated with UII for various times up to 60 min, and whole cell lysates were collected and the phosphorylation status of PKD was measured by Western blot analysis by using an antibody that recognizes the active form of PKD (phospho-Ser744/748). […]

[16] = tested on: CaMKI; experiment: Western blot of CaMKI phosphorylation (phospho-Thr178) in cardiomyocytes; type: cell-based, rat; conditions: AdUIIR-infected cardiomyocytes; UII with STO-609 for 2 or 5 min
Experimental: as §1, §3
UII stimulation results in the activation of CaMKI. […] One of the major downstream effectors of CaMKK is CaMKI. In addition to calcium/calmodulin, CaMKI requires phosphorylation by CaMKK to be active. To determine whether UII activates CaMKI, AdUIIR-infected cardiomyocyte cultures were treated with UII for various times up to 60 min, and whole cell lysates were collected and the phosphorylation status of CaMKI was measured by Western blot analysis by using an antibody that recognizes the active form of CaMKI (phospho-Thr178). […] CaMKI remained phosphorylated and active through 60 min of UII stimulation. Thus, UII activates CaMKI in cardiomyocytes.

p42 MAP kinase, sequence (P28482 whole entry): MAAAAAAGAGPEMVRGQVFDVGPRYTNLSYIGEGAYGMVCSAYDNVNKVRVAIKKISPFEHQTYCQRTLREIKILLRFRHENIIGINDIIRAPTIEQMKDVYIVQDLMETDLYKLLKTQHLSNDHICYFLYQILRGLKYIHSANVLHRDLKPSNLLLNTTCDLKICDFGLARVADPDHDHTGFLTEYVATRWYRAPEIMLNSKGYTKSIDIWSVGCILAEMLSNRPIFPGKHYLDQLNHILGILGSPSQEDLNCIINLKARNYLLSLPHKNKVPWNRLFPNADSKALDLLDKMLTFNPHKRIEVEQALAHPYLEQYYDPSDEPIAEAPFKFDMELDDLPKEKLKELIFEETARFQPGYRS
CaM-KI, sequence (Q14012 whole entry, species assumed): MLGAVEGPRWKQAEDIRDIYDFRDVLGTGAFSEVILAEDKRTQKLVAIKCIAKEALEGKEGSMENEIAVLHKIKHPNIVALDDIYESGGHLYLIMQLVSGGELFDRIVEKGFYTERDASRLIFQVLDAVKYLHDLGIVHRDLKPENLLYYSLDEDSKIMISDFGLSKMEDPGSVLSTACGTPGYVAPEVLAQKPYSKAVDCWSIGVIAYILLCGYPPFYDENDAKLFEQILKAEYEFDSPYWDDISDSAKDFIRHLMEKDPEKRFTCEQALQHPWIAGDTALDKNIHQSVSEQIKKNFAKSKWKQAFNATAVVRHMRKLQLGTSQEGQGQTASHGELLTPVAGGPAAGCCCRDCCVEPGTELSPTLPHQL
CaMKKa, sequence (P97756 whole entry): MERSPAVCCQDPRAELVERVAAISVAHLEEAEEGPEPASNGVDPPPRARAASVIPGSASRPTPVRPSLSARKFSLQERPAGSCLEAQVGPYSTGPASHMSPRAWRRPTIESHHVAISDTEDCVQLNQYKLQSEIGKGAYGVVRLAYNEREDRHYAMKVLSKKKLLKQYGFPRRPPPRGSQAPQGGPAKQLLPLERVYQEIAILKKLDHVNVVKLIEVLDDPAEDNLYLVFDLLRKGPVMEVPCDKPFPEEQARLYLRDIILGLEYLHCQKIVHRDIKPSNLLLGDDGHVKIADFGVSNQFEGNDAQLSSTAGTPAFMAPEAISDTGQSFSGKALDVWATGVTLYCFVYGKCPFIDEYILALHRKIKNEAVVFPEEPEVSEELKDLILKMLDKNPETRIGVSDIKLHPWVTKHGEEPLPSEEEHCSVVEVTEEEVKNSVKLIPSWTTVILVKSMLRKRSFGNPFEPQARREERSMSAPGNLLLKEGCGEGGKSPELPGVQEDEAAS

Row | Compound | UIIR mRNA expression [1] | UIIR protein expression [1] | effect of inhibitor on CaMKI activation of ANF, SkA and MEF2 reporter luciferase activity [2] | effect of inhibitor on UII-induced association of HDAC5 with 14-3-3β [3] | effect of inhibitor on UII activation of ANF, SkA and MEF2 reporter luciferase activity [4] | also measured
1 | CNC[C@H](O)c1cccc(O)c1 [PE, phenylephrine] | up-regulated the UIIR messenger RNA | up-regulation of UIIR | – | – | – | –
2 | C[S+]([O-])c1ccc(-c2nc(-c3ccncc3)c(-c3ccc(F)cc3)[nH]2)cc1 (stereo not drawn) [SB203580] | – | – | completely blocked | no effect | completely blocked | –
3 | O=C(O)c1ccc2c3c1cccc3c(=O)n1c3ccccc3nc21 [STO-609, 7-H-Benz[de]benzimidazo[2,1-a]isoquinoline-7-one-3-carboxylic acid] | – | – | – | loss of UII-induced association of HDAC5 with 14-3-3β; also recorded: decreased association of HDAC5 with 14-3-3β | completely blocked; also recorded: UII was incapable of stimulating any of the reporters | effect of inhibitor on UII-stimulated hypertrophy marker gene mRNA expression (ANF, BNP, αMHC, SkA) [5]: UII was unable to stimulate hypertrophy marker gene expression over control; also recorded: UII was unable to stimulate the expression of ANF, BNP, αMHC or SkA; IC50 [6]: > 31.8 µM; IC50 [7]: 0.382 µM; IC50 for PKC [8]: > 10 mg/L; IC50 for PKA [9]: > 10 mg/L; effect of inhibitor on AngII and Et-1 activation of ERK1/2 [10]: CaMKK is required for AngII and Et-1 activation of ERK1/2 and PKD; effect of inhibitor on AngII and Et-1 activation of PKD [11]: CaMKK is required for AngII and Et-1 activation of ERK1/2 and PKD; IC50 [12]: > 31.8 µM; IC50 [13]: > 31.8 µM; effect of inhibitor on UII-dependent phosphorylation of p38 and ERK1/2 [14]: UII was unable to stimulate p38 or ERK1/2; effect of inhibitor on UII-dependent phosphorylation of PKD [15]: UII was unable to stimulate PKD; effect of inhibitor on UII-dependent activation (phosphorylation) of CaMKI [16]: UII was unable to stimulate CaMKI; also recorded: inhibited
4 | N#CC(=C(/N)Sc1ccccc1N)/C(C#N)=C(\N)Sc1ccccc1N [U0126] | – | – | completely blocked | loss of UII-induced association of HDAC5 with 14-3-3β; also recorded: reduced UII-dependent association with 14-3-3β | completely blocked | –
5 | angiotensin II (DRVYIHPF; Angiotensin-2; UniProt P01019 25-32, looked up) [AngII, humoral hypertrophic agonist acting on the Gq-coupled angiotensin II receptor] | up-regulated the UIIR messenger RNA | up-regulation of UIIR | – | – | – | –
